This is an account of results in patent US9657031B2, “Ant-ligands molecules and biological applications” (MITOLOGICS, priority 2008, dated 2017).

Data set [1] relates to HT-29 and BxPC3 tumor cell lines. Put plainly: Multiparametric analysis of cell death (flow cytometry) on tumor cell lines. The format is cell-based, human. Conditions: for effect of caspase / cathepsin B inhibitors on apoptosis induced by the ANT-ligand: z-VAD-fmk, Q-VD-OPH, Z-FA-fmk, Bax/Bak deletion. The method, then:
FIG. 2: The ANT-ligand is pro-apoptotic on HT-29 and BxPC3 tumor cell lines • (A) Chemical structure of compound 1 • (B) Multiparametric analysis (chromatin condensation, mitochondrial transmembrane potential (L′m) loss, plasma membrane permeabilization, phosphatidylserine exposure) of cellular effects of the ANT-ligand on BxPC3 cell line after 48 h treatment. • (C) Effects of compound 1 on ADP/ATP translocator activity of ANT measured on isolated mitochondria from mice liver or HT-29 tumor cell line (IC50 is given in μM based on ANT assays) and on viability of HT-29 and BxPC3 tumor cell lines (LD50 is given in μM based on MTT assays at 48 h).
(§1) MTT assay was used to evaluate the viability of a large range of human cell lines in presence of small molecules. Dose-response experiments allow us to determine a lethal-dose 50 (LD50; dose killing 50% of the cellular population) for each compound on a particular cell type after a 48-hour incubation. This viability assay is used as a first screening assay to identify cell-permeant molecules able to induce cell death (cytotoxic) or growth delay (cytostatic) among the 956 molecules of the ANT-ligands library. We have chosen to select molecules having an LD50 below 50 μM on HT-29 (colon adenocarcinoma) or BxPC3 (pancreatic adenocarcinoma) cell lines. These molecules come into the ANT activity screening assays and the efficient ANT-inhibitors (IC50 below 50 μM) are investigated for their mechanisms of cell death induction. Indeed, the characterisation of cell death consists in a multiparametric analysis of treated-cells by flow cytometry (FacsCalibur, Becton Dickinson) where can be measured (1) the loss of mitochondrial trans-membrane potential (L′m; DIOC6 labelling), (2) the plasma membrane permeabilization (Propidium Iodide labeling) and (3) the phosphatidylserines exposure (Annexin-V-fitc labelling).

Data set [2] concerns Wi-38 (normal lung fibroblasts). Put plainly: Multiparametric analysis of cellular effects on Wi-38 cell line. Type of data set: cell-based. Conditions: Wi-38, compared to HT-29, BxPC3, 48 h and 72 h treatments. On the procedure: FIG. 4: Compound 1 induces low toxicity on normal fibroblast Wi-38 • A) Expression pattern of ANT isoforms in HT-29, BxPC3 and Wi-38 (normal lung fibroblasts) cell lines after RT-PCR reaction on total RNA • (B) Multiparametric analysis (mitochondrial transmembrane potential, plasma membrane permeabilization, phosphatidylserine exposure) of cellular effects of the ANT-ligand on Wi-38 cell line after 48 h and 72 h treatments.
as §1, with “We have chosen to select molecules having an LD50 below 50 μM on HT-29 (colon adenocarcinoma) or BxPC3 (pancreatic adenocarcinoma) cell lines. These molecules come into the ANT activity screening assays and the efficient ANT-inhibitors (IC50 below 50 μM) are investigated for their mechanisms of cell death induction.” left out

In the next data set the test system is lymphocytes (PBMC). Put plainly: Toxicity on lymphocytes (PBMC). Type of data set: cell-based. As to conditions: doses below 400 μM; data not shown.
The test system of data set [3] is S. cerevisiae WT (W303) and JL1-3 (ΔANT 1, 2 & 3) strains. Put plainly: Clonogenic assays on S. cerevisiae strains deficient for ANT isoforms. Type of data set: cell-based. As to conditions: ΔANT 1, 2 & 3 vs WT; viability at 48 h after 2 h incubation. On the procedure:
The importance of ANT isoforms in cytotoxic effects of the selected ANT-ligands has been evaluated using S. cerevisiae strains deficient for ANT isoforms (FIG. 5). Clonogenic assays on these strains are used to ensure that cytotoxic effects of the ANT-ligands are really due to the expression of ANTs in the cells.
FIG. 5: Target validation of compound 1 using ANT-deficient yeasts • (A) Quantitative estimation of yeasts viability at 48 h after 2 h incubation with compound 1 • (B) Illustration of WT (W303) and JL1-3 (LANT1, 2 and 3) yeast strains growth on plates at 48 h after 2 h incubation with compound 1.

Each structure is given as a SMILES string.

As to `O=C(O)CCCCn1c(SCc2ccccc2Cl)nc2ccsc2c1=O` [Compound 1], in data set [1] (multiparametric analysis), the “apoptosis hallmarks (mitochondrial potential loss, phosphatidylserine exposure, plasma membrane permeabilization, chromatin condensation)” value was “induces classical hallmarks of apoptosis”. The mitochondrial trans-membrane potential result in data set [1] (tumor cells) is “induces dissipation of the mitochondrial trans-membrane potential”. The “effect of caspase / cathepsin B inhibitors on apoptosis induced by the ANT-ligand” value in data set [1] was “inhibited by pan-caspase inhibitors (z-VAD-fmk, Q-VD-OPH) but not by the cathepsin B inhibitor (Z-FA-fmk)”; in data set [1] (listed as compound 1), “abolished by caspase inhibitors”. Besides, the “toxicity on normal lung fibroblasts” value in data set [2] is recorded as “low toxicity”; in data set [2] (listed as compound 1), “minor compared to tumor cells”. In addition, the “toxicity on lymphocytes (PBMC)” value with lymphocytes (PBMC) is on record as “no sign of toxicity”. For the same compound, in data set [3], the “resistance of ANT-deficient yeast strain versus wild-type” value is reported as “more resistant to the compound 1 than the wild-type (WT) control strain”.
